Columns and labels:
[1] = tested on: blackgrass; experiment: Test B pre/postemergence blackgrass; assay type: in vivo, Alopecurus myosuroides
Procedure, shortened: (§1)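 Herbicidal effect was estimated by eye on a ten-point control scale after plants spent twelve to sixteen days in a greenhouse following soil or foliar treatment. Foliar sprays targeted plants at one to four leaves; all doses were formulated in a non-phytotoxic solvent with surfactant.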

[2] = tested on: surinam grass; experiment: Test B pre/postemergence surinam grass; assay type: in vivo, Brachiaria decumbens
Procedure, shortened: as §1

[3] = tested on: cocklebur; experiment: Test B pre/postemergence cocklebur; assay type: in vivo, Xanthium strumarium
Procedure, shortened: as §1

[4] = tested on: corn; experiment: Test B pre/postemergence corn; assay type: in vivo, Zea mays
Procedure, shortened: as §1

[5] = tested on: crabgrass; experiment: Test B pre/postemergence crabgrass; assay type: in vivo, Digitaria sanguinalis
Procedure, shortened: as §1

[6] = tested on: soybean; experiment: Test B pre/postemergence soybean; assay type: in vivo, Glycine max
Procedure, shortened: as §1

[7] = tested on: sugar beet; experiment: Test B pre/postemergence sugar beet; assay type: in vivo, Beta vulgaris
Procedure, shortened: as §1

[8] = tested on: velvetleaf; experiment: Test B pre/postemergence velvetleaf; assay type: in vivo, Abutilon theophrasti
Procedure, shortened: as §1

[9] = tested on: wheat; experiment: Test B pre/postemergence wheat; assay type: in vivo, Triticum aestivum
Procedure, shortened: as §1

[10] = tested on: wild oat; experiment: Test B pre/postemergence wild oat; assay type: in vivo, Avena fatua
Procedure, shortened: as §1

[11] = tested on: purple nutsedge; experiment: Test B pre/postemergence purple nutsedge; assay type: in vivo, Cyperus rotundus
Procedure, shortened: as §1

[12] = tested on: rice; experiment: Test B flood test rice; assay type: in vivo, Oryza sativa
Procedure, shortened: (§2)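 Each value is a visual injury score relative to controls, with 10 meaning complete control and 0 no effect. Evaluation took place twelve to sixteen days after the 2-leaf-stage plants were treated and kept in the greenhouse.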

[13] = tested on: smallflower flatsedge; experiment: Test B flood test smallflower flatsedge; assay type: in vivo, Cyperus difformis
Procedure, shortened: as §2

[14] = tested on: duck salad; experiment: Test B flood test duck salad; assay type: in vivo, Heteranthera limosa
Procedure, shortened: as §2

[15] = tested on: bamyardgrass; experiment: Test B flood test barnyardgrass; assay type: in vivo, Echinochloa crus-galli
Procedure, shortened: as §2

[16] = Postemergence, Rate 62 g/ha, scale 0 to 10, 0 is no effect, 10 is complete control
[17] = Postemergence, Rate 125 g/ha, scale of 0 to 10 where 0 is no effect and 10 is complete control
[18] = Postemergence, Rate 250 g/ha, scale of 0 to 10, 0 is no effect, 10 is complete control
[19] = Postemergence, Rate 500 g/ha, scale of 0 to 10 where 0 is no effect and 10 is complete control
[20] = Preemergence, Rate 62 g/ha, scale of 0 to 10 where 0 is no effect and 10 is complete control
[21] = Preemergence, Rate 125 g/ha, scale of 0 to 10 where 0 is no effect and 10 is complete control
[22] = Preemergence, Rate 250 g/ha, scale 0 to 10 (0 no effect, 10 complete control)
[23] = Preemergence, Rate 500 g/ha, scale of 0 to 10 where 0 is no effect and 10 is complete control
[24] = Rate 62 g/ha, flood test species, Pre-emergence, visual evaluation after twelve to sixteen days
[25] = Rate 125 g/ha, under heading Pre-emergence, flood test species, visual evaluation after twelve to sixteen days
[26] = Rate 250 g/ha, Pre-emergence (flood test species), scale 0 to 10, 0 is no effect, 10 is complete control
[27] = Rate 500 g/ha, Pre-emergence section of Table B, 0 to 10 scale (0 no effect, 10 complete control)

CC(C)N(C(=O)n1oc(=O)n(CC(=O)C2CCC2)c1=O)c1ccc(F)cc1F [Compound 642]
8: Plant response rating, B. signalgrass [2, 23] | Crabgrass plant response rating [5, 21]
7: Plant response rating, Blackgrass [1, 23]
0: Plant response rating, Blackgrass [1, 16] | Blackgrass plant response rating [1, 17] | Blackgrass plant response rating [1, 20] | Blackgrass plant response rating [1, 21] | Plant response rating, B. signalgrass [2, 16] | Plant response rating, B. signalgrass [2, 17] | B. signalgrass plant response rating [2, 18] | Plant response rating, B. signalgrass [2, 19] | B. signalgrass plant response rating [2, 20] | Plant response rating, Cocklebur [3, 16] | Cocklebur plant response rating [3, 17] | Cocklebur plant response rating [3, 18] | Plant response rating, Cocklebur [3, 19] | Cocklebur plant response rating [3, 20] | Cocklebur plant response rating [3, 21] | Plant response rating, Cocklebur [3, 22] | Plant response rating, Cocklebur [3, 23] | Plant response rating, Corn [4, 16] | Corn plant response rating [4, 17] | Corn plant response rating [4, 18] | Plant response rating, Corn [4, 19] | Corn plant response rating [4, 20] | Corn plant response rating [4, 21] | Plant response rating, Corn [4, 22] | Plant response rating, Corn [4, 23] | Plant response rating, Crabgrass [5, 16] | Crabgrass plant response rating [5, 17] | Crabgrass plant response rating [5, 18] | Soybean plant response rating [6, 20] | Soybean plant response rating [6, 21] | Plant response rating, Soybean [6, 22] | Plant response rating, Soybean [6, 23] | Plant response rating, Sugarbeets [7, 16] | Sugarbeets plant response rating [7, 17] | Sugarbeets plant response rating [7, 18] | Sugarbeets plant response rating [7, 20] | Sugarbeets plant response rating [7, 21] | Plant response rating, Sugarbeets [7, 22] | Plant response rating, Velvetleaf [8, 16] | Velvetleaf plant response rating [8, 17] | Velvetleaf plant response rating [8, 20] | Velvetleaf plant response rating [8, 21] | Plant response rating, Velvetleaf [8, 22] | Plant response rating, Wheat [9, 16] | Wheat plant response rating [9, 17] | Wheat plant response rating [9, 18] | Wheat plant response rating [9, 20] | Wheat plant response rating [9, 21] | Plant response rating, Wheat [9, 22] | Plant response rating, Wheat [9, 23] | Wild oats plant response rating [10, 20] | Wild oats plant response rating [10, 21] | Plant response rating, Nutsedge [11, 16] | Nutsedge plant response rating [11, 17] | Nutsedge plant response rating [11, 18] | Plant response rating, Nutsedge [11, 19] | Nutsedge plant response rating [11, 20] | Nutsedge plant response rating [11, 21] | Plant response rating, Nutsedge [11, 22] | Plant response rating, Nutsedge [11, 23] | Plant response rating, Rice (0 to 10 scale, 0 is no effect, 10 is complete control) [12, 24] | Rice plant response rating (0 to 10 scale, 0 is no effect, 10 is complete control) [12, 25] | Rice plant response rating [12, 26] | Rice plant response rating [12, 27] | Plant response rating, S. Flatsedge (0 to 10 scale, 0 is no effect, 10 is complete control) [13, 24] | S. Flatsedge plant response rating (0 to 10 scale, 0 is no effect, 10 is complete control) [13, 25] | S. Flatsedge plant response rating [13, 26] | S. Flatsedge plant response rating [13, 27] | Plant response rating, Ducksalad (0 to 10 scale, 0 is no effect, 10 is complete control) [14, 24] | Ducksalad plant response rating (0 to 10 scale, 0 is no effect, 10 is complete control) [14, 25] | Ducksalad plant response rating [14, 26] | Ducksalad plant response rating [14, 27] | Plant response rating, Barnyardgrass (0 to 10 scale, 0 is no effect, 10 is complete control) [15, 24] | Barnyardgrass plant response rating (0 to 10 scale, 0 is no effect, 10 is complete control) [15, 25] | Barnyardgrass plant response rating [15, 26] | Barnyardgrass plant response rating [15, 27]
1: Plant response rating, Wild oats [10, 16] | Wild oats plant response rating [10, 17] | Wild oats plant response rating [10, 18]
5: Plant response rating, B. signalgrass [2, 22] | Plant response rating, Crabgrass [5, 19]
4: Plant response rating, Blackgrass [1, 22] | Plant response rating, Sugarbeets [7, 23] | Plant response rating, Wild oats [10, 23]
6: Blackgrass plant response rating [1, 18] | Plant response rating, Blackgrass [1, 19] | Crabgrass plant response rating [5, 20]
10: Plant response rating, Crabgrass [5, 22] | Plant response rating, Crabgrass [5, 23]
3: Velvetleaf plant response rating [8, 18] | Plant response rating, Velvetleaf [8, 23]
2: B. signalgrass plant response rating [2, 21] | Plant response rating, Soybean [6, 16] | Soybean plant response rating [6, 17] | Soybean plant response rating [6, 18] | Plant response rating, Wild oats [10, 22]

Reference: patent US6737383B1, “Herbicidal oxadiazolidines” (priority 1999, dated 2004)
